Results reported in US6479435B1, “Diaryl ethers and processes for their preparation and herbicidal and desiccant compositions containing them” (ISK Americas Incorporated, priority 1997, dated 2002).

How the values were obtained:
Broadleaf Weeds [1] = assay: Pre-emergent application in combination with other herbicides, percent control of broadleaf weeds; format: in vivo
Description: (§1) All plants were grown in 10 cm square plastic pots which were filled with a sandy loam soil mix. For preemerge tests, seeds were planted one day prior to application of the test compounds. Immediately after application, test units of the pre-emerge applications were watered at the soil surface to incorporate the test materials. Subsequently, these test units were bottom-watered.
(§2) All test compounds were dissolved in acetone and applied to the test units in a volume of 187 l/ha. […] Plants were arranged on a shelf so that the top of the canopy (post-emerge) or top of the soil surface (pre-emerge) was 40-45 cm below the nozzle. Pressurized air was used to force the test solution through the nozzle as it was mechanically advanced (via electrically driven chain drive) over the top of all test plants/pots. This application simulates a typical commercial field herbicide application.
(§3) At 14 days after application of the test materials, phytotoxicity ratings were recorded. A rating scale of 0-100 was used as previously described in Research Methods in Weed Science, 2nd edition, B. Truelove, Ed., Southern Weed Science Society, Auburn University, Auburn, Ala., 1977. Briefly, “0” corresponds to no damage and “100” corresponds to complete death of all plants in the test unit. This scale was used both to determine efficacy against weed species and damage to crop species. Herbicide activity data for various compounds of this invention, which are shown by compound number in Tables 1-9, are shown in Tables 13 and 14.
(§4) (Note: Weed species abbreviations are from the Composite List of Weeds published by the Weed Science Society of America, 1989.)
The following examples illustrate the utility of combinations of compounds of this invention and existing herbicides. The methods used are identical to those for the application of single compounds except the commercial formulations of existing herbicides were added to the spray mixture in the appropriate amounts before spraying. […]
(§5) Combination Example 2. Pre-emergent Application of Compound 9-1 with Dimethenamid

Grass Weeds [2] = assay: Pre-emergent application in combination with other herbicides, percent control of grass weeds; format: in vivo; conditions: 1121 g ai/ha
Description: as §1, §2, §3, §4
The following examples illustrate the utility of combinations of compounds of this invention and existing herbicides. The methods used are identical to those for the application of single compounds except the commercial formulations of existing herbicides were added to the spray mixture in the appropriate amounts before spraying.
Combination Example 1. Pre-emergent Application of Compound 9-1 with Metolachlor
as §5

Grass Weeds [3] = assay: Post-emergent application in combination with other herbicides, percent control of grass weeds; format: in vivo
Description: All test compounds were dissolved in acetone and applied to the test units in a volume of 187 l/ha. Test materials were applied at rates ranging from 125 g ai/ha to 1000 g ai/ha using a track sprayer equipped with a TJ8001E even flow flat fan spray nozzle. Plants were arranged on a shelf so that the top of the canopy (post-emerge) or top of the soil surface (pre-emerge) was 40-45 cm below the nozzle. Pressurized air was used to force the test solution through the nozzle as it was mechanically advanced (via electrically driven chain drive) over the top of all test plants/pots. This application simulates a typical commercial field herbicide application. In the post-emerge test, a commercial non-ionic surfactant was also included (0.25% v/v) to enhance wetting of the leaf surfaces Qf target plants at rates ranging from 63 g ai/ha to 1000 g ai/ha. For post-emerge tests, seeds were planted 8-21 days prior to the test to allow emergence and good foliage development prior to application of the test substances. At the time of the post-emerge application, plants of all species were usually at the 2-3 leaf stage of development. Post-emerge test units were always bottom-watered. At 14 days after application of the test materials, phytotoxicity ratings were recorded. A rating scale of 0-100 was used as previously described in Research Methods in Weed Science, 2nd edition, B. Truelove, Ed., Southern Weed Science Society, Auburn University, Auburn, Ala., 1977. Briefly, “0” corresponds to no damage and “100” corresponds to complete death of all plants in the test unit. This scale was used both to determine efficacy against weed species and damage to crop species. Herbicide activity data for various compounds of this invention, which are shown by compound number in Tables 1-9, are shown in Tables 13 and 14. […] (Note: Weed species abbreviations are from the Composite List of Weeds published by the Weed Science Society of America, 1989.) The following examples illustrate the utility of combinations of compounds of this invention and existing herbicides. The methods used are identical to those for the application of single compounds except the commercial formulations of existing herbicides were added to the spray mixture in the appropriate amounts before spraying. Combination Example 3. Post-emergent Application of Compound 9-1 with Nicosulfuron Combination Example 4. Postemergent Application of Compound 9-1 with Pyridate

Broadleaf Weeds [4] = assay: Post-emergent application in combination with other herbicides, percent control of broadleaf weeds; format: in vivo
Description: All test compounds were dissolved in acetone and applied to the test units in a volume of 187 l/ha. Test materials were applied at rates ranging from 125 g ai/ha to 1000 g ai/ha using a track sprayer equipped with a TJ8001E even flow flat fan spray nozzle. Plants were arranged on a shelf so that the top of the canopy (post-emerge) or top of the soil surface (pre-emerge) was 40-45 cm below the nozzle. Pressurized air was used to force the test solution through the nozzle as it was mechanically advanced (via electrically driven chain drive) over the top of all test plants/pots. This application simulates a typical commercial field herbicide application. […] For post-emerge tests, seeds were planted 8-21 days prior to the test to allow emergence and good foliage development prior to application of the test substances. At the time of the post-emerge application, plants of all species were usually at the 2-3 leaf stage of development. Post-emerge test units were always bottom-watered. At 14 days after application of the test materials, phytotoxicity ratings were recorded. A rating scale of 0-100 was used as previously described in Research Methods in Weed Science, 2nd edition, B. Truelove, Ed., Southern Weed Science Society, Auburn University, Auburn, Ala., 1977. Briefly, “0” corresponds to no damage and “100” corresponds to complete death of all plants in the test unit. This scale was used both to determine efficacy against weed species and damage to crop species. Herbicide activity data for various compounds of this invention, which are shown by compound number in Tables 1-9, are shown in Tables 13 and 14. […] (Note: Weed species abbreviations are from the Composite List of Weeds published by the Weed Science Society of America, 1989.) The following examples illustrate the utility of combinations of compounds of this invention and existing herbicides. The methods used are identical to those for the application of single compounds except the commercial formulations of existing herbicides were added to the spray mixture in the appropriate amounts before spraying. Combination Example 3. Post-emergent Application of Compound 9-1 with Nicosulfuron Combination Example 4. Postemergent Application of Compound 9-1 with Pyridate

Question: Which melting point does the source give for `CS(=O)(=O)c1cccnc1Oc1cc(-n2c(=O)cc(C(F)(F)F)n(N)c2=O)c(F)cc1Cl` [Compound 9-19, 1-Amino-3-[4-chloro-2-fluoro-5-(3-methylsulfonyl-2-pyridyloxy)phenyl]-6-trifluoromethyl-1,2,3,4-tetrahydropyrimidine-2,4-dione] here?
Answer: 276 to 278 °C

Question: For `CCS(=O)(=O)c1cccnc1Oc1cc(-n2c(=O)cc(C(F)(F)F)n(N)c2=O)c(F)cc1Cl` [Compound 9-13, 1-Amino-3-[4-Chloro-2-fluoro-5-(3-ethylsulfonyl-2-pyridyloxy)phenyl]-6-trifluoromethyl-1,2,3,4-tetrahydropyrimidine-2,4-dione], which melting point is on record?
Answer: 277 to 279 °C

Question: With `COCC(C)N(C(=O)CCl)c1c(C)csc1C` (centres unmarked) [Dimethenamid, reference compound] as the compound, how does the “Percent Control of Broadleaf Weeds ABUTH” value (Broadleaf Weeds [1]; 520 g ai/ha) read?
Answer: 40%

Question: What about the “Percent Control of Broadleaf Weeds AMARE” value (Broadleaf Weeds [1]; 520 g ai/ha) of the same compound?
Answer: 100%

Question: What about the “Percent Control of Broadleaf Weeds AMBEL” value (Broadleaf Weeds [1]; 520 g ai/ha) of the same compound?
Answer: 40%

Question: What about the “Percent Control of Broadleaf Weeds CASOB” value (Broadleaf Weeds [1]; 520 g ai/ha) of the same compound?
Answer: 40%

Question: What about the “Percent Control of Broadleaf Weeds CHEAL” value (Broadleaf Weeds [1]; 520 g ai/ha) of the same compound?
Answer: 30%

Question: What about the “Percent Control of Broadleaf Weeds IPOHE” value (Broadleaf Weeds [1]; 520 g ai/ha) of the same compound?
Answer: 0%

Question: What about the “Percent Control of Grass Weeds DIGSA” value (Grass Weeds [2]; Combination Example 2) of the same compound?
Answer: 100%

Question: What about the “Percent Control of Grass Weeds ECHCG” value (Grass Weeds [2]; Combination Example 2) of the same compound?
Answer: 100%

Question: What about the “Percent Control of Grass Weeds SETVI” value (Grass Weeds [2]; Combination Example 2) of the same compound?
Answer: 100%

Question: What about the “Percent Control of Grass Weeds SORHA” value (Grass Weeds [2]; Combination Example 2) of the same compound?
Answer: 100%

Question: What does the source list for `COc1cc(OC)nc(NC(=O)NS(=O)(=O)c2ncccc2C(=O)N(C)C)n1` [Nicosulfuron, reference compound]?
Answer: Percent Control of Grass Weeds DIGSA (Grass Weeds [3]; 23 g ai/ha): 80%; Percent Control of Grass Weeds ECHCG (Grass Weeds [3]; 23 g ai/ha): 95%; Percent Control of Grass Weeds SETVI (Grass Weeds [3]; 23 g ai/ha): 85%; Percent Control of Grass Weeds SORHA (Grass Weeds [3]; 23 g ai/ha): 85%; Percent Control of Broadleaf Weeds ABUTH (Broadleaf Weeds [4]; 23 g ai/ha): 55%; Percent Control of Broadleaf Weeds AMARE (Broadleaf Weeds [4]; 23 g ai/ha): 70%; Percent Control of Broadleaf Weeds AMBEL (Broadleaf Weeds [4]; 23 g ai/ha): 0%; Percent Control of Broadleaf Weeds CASOB (Broadleaf Weeds [4]; 23 g ai/ha): 30%; Percent Control of Broadleaf Weeds CHEAL (Broadleaf Weeds [4]; 23 g ai/ha): 70%; Percent Control of Broadleaf Weeds IPOHE (Broadleaf Weeds [4]; 23 g ai/ha): 70%

Question: With `CCc1cccc(C)c1N(C(=O)CCl)C(C)COC` (centres unmarked) [Metolachlor, reference compound] as the compound, how does the “Percent Control of Broadleaf Weeds ABUTH” value (Broadleaf Weeds [1]; 1121 g ai/ha) read?
Answer: 20%

Question: And the “Percent Control of Broadleaf Weeds AMARE” value (Broadleaf Weeds [1]; 1121 g ai/ha)?
Answer: 100%

Question: What about the “Percent Control of Broadleaf Weeds AMBEL” value (Broadleaf Weeds [1]; 1121 g ai/ha) of the same compound?
Answer: 30%

Question: And the “Percent Control of Broadleaf Weeds CASOB” value (Broadleaf Weeds [1]; 1121 g ai/ha)?
Answer: 10%

Question: And the “Percent Control of Broadleaf Weeds CHEAL” value (Broadleaf Weeds [1]; 1121 g ai/ha)?
Answer: 90%

Question: And the “Percent Control of Broadleaf Weeds IPOHE” value (Broadleaf Weeds [1]; 1121 g ai/ha)?
Answer: 20%

Question: What about the “Percent Control of Grass Weeds DIGSA” value (Grass Weeds [2]) of the same compound?
Answer: 100%

Question: What about the “Percent Control of Grass Weeds ECHCG” value (Grass Weeds [2]) of the same compound?
Answer: 100%

Question: What about the “Percent Control of Grass Weeds SETVI” value (Grass Weeds [2]) of the same compound?
Answer: 100%

Question: And the “Percent Control of Grass Weeds SORHA” value (Grass Weeds [2])?
Answer: 100%

Question: Which melting point does the source give for `N#Cc1c(F)cccc1Oc1cc(-n2c(=O)cc(C(F)(F)F)n(N)c2=O)c(F)cc1Cl` [Compound 9-31, 1-Amino-3-[4-chloro-2-fluoro-5-(2-cyano-3-fluorophenoxy)phenyl]-6-trifluoromethyl-1,2,3,4-tetrahydropyrimidine-2,4-dione] here?
Answer: 230 to 233 °C

Question: For `CCCCCCCCSC(=O)Oc1cc(Cl)nnc1-c1ccccc1` [Pyridate, reference compound], which “Percent Control of Grass Weeds DIGSA” value (Grass Weeds [3]; 527 g ai/ha) is on record?
Answer: 10%

Question: And the “Percent Control of Grass Weeds ECHCG” value (Grass Weeds [3]; 527 g ai/ha)?
Answer: 50%

Question: What about the “Percent Control of Grass Weeds SETVI” value (Grass Weeds [3]; 527 g ai/ha) of the same compound?
Answer: 95%

Question: What about the “Percent Control of Grass Weeds SORHA” value (Grass Weeds [3]; 527 g ai/ha) of the same compound?
Answer: 10%

Question: What about the “Percent Control of Broadleaf Weeds ABUTH” value (Broadleaf Weeds [4]; 527 g ai/ha) of the same compound?
Answer: 60%

Question: And the “Percent Control of Broadleaf Weeds AMARE” value (Broadleaf Weeds [4]; 527 g ai/ha)?
Answer: 90%

Question: What about the “Percent Control of Broadleaf Weeds AMBEL” value (Broadleaf Weeds [4]; 527 g ai/ha) of the same compound?
Answer: 40%

Question: And the “Percent Control of Broadleaf Weeds CASOB” value (Broadleaf Weeds [4]; 527 g ai/ha)?
Answer: 10%

Question: And the “Percent Control of Broadleaf Weeds CHEAL” value (Broadleaf Weeds [4]; 527 g ai/ha)?
Answer: 85%

Question: What about the “Percent Control of Broadleaf Weeds IPOHE” value (Broadleaf Weeds [4]; 527 g ai/ha) of the same compound?
Answer: 80%

Question: For `N#Cc1ccccc1Oc1cc(-n2c(=O)cc(C(F)(F)F)n(N)c2=O)c(F)cc1Cl` [Compound 9-30, 1-Amino-3-[4-chloro2-fluoro-5-(2-cyanophenoxy)phenyl]-6-trifluoromethyl-1,2,3,4-tetrahydropyrimidine-2,4-dione], which melting point is on record?
Answer: 220 to 222 °C
